Our source for the TNF induction, melting point and IFN induction values is patent US7678918B2, “Intermediates for imidazonaphthyridines” (3M Innovative Properties Company, priority 1997, dated 2010).

One data set relates to TNF. Briefly: Cytokine Induction in Human Cells: tumor necrosis factor (TNF) secreted by PBMCs, ELISA. Note: call rule not given here. It is filed as cell-based. As to conditions: 18 to 24 hours. A digest of the protocol: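 Human donor PBMCs at 1.5-2×10^6 cells/mL in RPMI with 10% FBS were exposed to compound, generally at 0.1 to 100 μM (≤1% DMSO final), for 18 to 24 h at 37 °C. Secreted TNF in supernatant was measured by ELISA and reported as pg/mL.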

A further data set relates to IFN. Briefly: Cytokine Induction in Human Cells: interferon (IFN) secreted by PBMCs, A549/encephalomyocarditis bioassay. Note: call rule not given here. It is filed as cell-based. As to conditions: 18 to 24 hours. A digest of the protocol:
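Human PBMCs from healthy donors at 1.5-2×10^6 cells/mL in RPMI with 10% FBS, exposed to compounds (typically 0.1 to 100 μM, ≤1% DMSO) for 18 to 24 h at 37° C. Secreted IFN measured by A549/encephalomyocarditis virus cytopathic-effect bioassay, in alpha reference units/mL against NIH human leukocyte IFN standard.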

`CCCCc1nc2c(N)nc3cccnc3c2n1CCNC(=O)CC(C)CCC=C(C)C` (centres unmarked) [Example 100, N^1-[2-(4-Amino-2-butyl-1H-imidazo[4,5-c][1,5]naphthyridin-1-yl)ethyl]-3,7-dimethyl-6-octenamide] showed a melting point of 163 to 164 °C. Further, the TNF induction result with TNF (Dose Concentration 0.1 μM) is listed as “−”. The TNF induction entry in the data set on TNF (Dose Concentration 1.0 μM) was “−”. In addition, the TNF induction entry in the data set on TNF (Dose Concentration 10.0 μM) is on record as “+”. The TNF induction entry in the data set with TNF (Dose Concentration 100.0 μM) was “+”. The IFN induction result in the data set with IFN (Dose Concentration 0.1 μM) is given as “−”. Further, the IFN induction entry in the data set on IFN (Dose Concentration 1.0 μM) is on record as “−”. In addition, the IFN induction entry with IFN (Dose Concentration 10.0 μM) was “+”. The IFN induction result with IFN (Dose Concentration 100.0 μM) is “+”.

With `CCCCc1nc2c(N)nc3cccnc3c2n1CCNC(=O)C(CC(C)C)NC(=O)OC(C)(C)C` (centres unmarked) [Example 101, 1,1-Dimethylethyl N-[1-({[2-(4-Amino-2-butyl-1H-imidazo[4,5-c][1,5]naphthyridin-1-yl)ethyl]amino}carbonyl)-3-methylbutyl]carbamate], the melting point was 184 to 185 °C. Also, the TNF induction result in the data set on TNF (Dose Concentration 0.1 μM) is given as “−”. Besides, in the data set on TNF (Dose Concentration 1.0 μM), the TNF induction result is recorded as “−”. In addition, the TNF induction entry with TNF (Dose Concentration 100.0 μM) is recorded as “+”. The IFN induction entry with IFN (Dose Concentration 0.1 μM) is reported as “−”. In addition, the IFN induction entry in the data set on IFN (Dose Concentration 1.0 μM) is listed as “−”. In addition, in the data set on IFN (Dose Concentration 10.0 μM), the IFN induction entry is on record as “+”. Moreover, the IFN induction entry in the data set on IFN (Dose Concentration 100.0 μM) is recorded as “+”.

Take `CCCCc1nc2c(N)nc3cccnc3c2n1CCNC(=O)c1c(C)noc1C` [Example 103, N-[2-(4-Amino-2-butyl-1H-imidazo[4,5-c][1,5]naphthyridin-1-yl)ethyl]-3,5-dimethyl-4-isoxazolecarboxamide]: the melting point was 188 to 189 °C. The TNF induction entry with TNF (Dose Concentration 0.1 μM) is “−”. Moreover, in the data set with TNF (Dose Concentration 1.0 μM), the TNF induction result is recorded as “−”. The TNF induction entry in the data set on TNF (Dose Concentration 10.0 μM) is listed as “+”. In addition, the TNF induction entry in the data set on TNF (Dose Concentration 100.0 μM) was “+”. Besides, the IFN induction entry in the data set on IFN (Dose Concentration 0.1 μM) was “−”. Moreover, in the data set with IFN (Dose Concentration 1.0 μM), the IFN induction entry is reported as “−”. For the same compound, the IFN induction result with IFN (Dose Concentration 10.0 μM) is on record as “+”. In the data set on IFN (Dose Concentration 100.0 μM), the IFN induction result was “+”.

For the compound `CCCCc1nc2c(N)nc3c(c2n1CCNC(=O)c1cc(C(C)(C)C)c(O)c(C(C)(C)C)c1)NCCC3` [Example 104, N^1-[2-(4-Amino-2-butyl-6,7,8,9-tetrahydro-1H-imidazo[4,5-c][1,5]naphthyridin-1-yl)ethyl]-3,5-di-(1,1-dimethylethyl)-4-hydroxybenzamide], the melting point lay in the range of 208 to 210 °C. Further, in the data set on TNF (Dose Concentration 0.1 μM), the TNF induction entry was “−”. In the data set with TNF (Dose Concentration 1.0 μM), the TNF induction result is “−”. In addition, in the data set with TNF (Dose Concentration 10.0 μM), the TNF induction result is listed as “+”. For the same compound, the TNF induction result in the data set with TNF (Dose Concentration 100.0 μM) is “−”. The IFN induction entry in the data set on IFN (Dose Concentration 0.1 μM) is on record as “−”. In addition, the IFN induction result in the data set with IFN (Dose Concentration 1.0 μM) is given as “+”. In the data set with IFN (Dose Concentration 10.0 μM), the IFN induction entry is “+”. For the same compound, in the data set on IFN (Dose Concentration 100.0 μM), the IFN induction entry is “−”.

For the compound `CCCCc1nc2c(N)nc3cccnc3c2n1CCCCNC(=O)Cn1cc(C)c(O)nc1=O` [Example 108, N^1-[4-(4-Amino-2-butyl-1H-imidazo[4,5-c][1,5]naphthyridin-1-yl)butyl]-2-(4-hydroxy-5-methyl-2-oxo-1,2-dihydro-1-pyrimidinyl)acetamide], the melting point was in the range of 242 to 244 °C. In addition, the TNF induction entry in the data set on TNF (Dose Concentration 0.1 μM) is on record as “±”. The TNF induction result in the data set with TNF (Dose Concentration 1.0 μM) was “−”. Further, the TNF induction entry in the data set with TNF (Dose Concentration 10.0 μM) is recorded as “+”. The TNF induction result in the data set with TNF (Dose Concentration 100.0 μM) is “+”. In addition, the IFN induction result with IFN (Dose Concentration 0.1 μM) is listed as “+”. Also, the IFN induction entry in the data set with IFN (Dose Concentration 1.0 μM) is “+”. The IFN induction entry in the data set on IFN (Dose Concentration 10.0 μM) is recorded as “+”. Also, the IFN induction entry with IFN (Dose Concentration 100.0 μM) is recorded as “+”.

With `CCCCc1nc2c(N)nc3cccnc3c2n1CCCCNC(=O)CSc1ncccn1` [Example 109, N^1-[4-(4-Amino-2-butyl-1H-imidazo[4,5-c][1,5]naphthyridin-1-yl)butyl]-2-(2-pyrimidinylsulfanyl)acetamide], the melting point was 156 to 160 °C (dec.). Also, the TNF induction result in the data set with TNF (Dose Concentration 0.1 μM) is reported as “−”. In addition, the TNF induction entry in the data set on TNF (Dose Concentration 1.0 μM) is recorded as “±”. The TNF induction result in the data set on TNF (Dose Concentration 10.0 μM) is given as “+”. Also, the TNF induction entry with TNF (Dose Concentration 100.0 μM) is “+”. The IFN induction entry with IFN (Dose Concentration 0.1 μM) was “+”. Further, the IFN induction result in the data set on IFN (Dose Concentration 1.0 μM) was “+”. Also, in the data set with IFN (Dose Concentration 10.0 μM), the IFN induction entry is listed as “+”. Moreover, in the data set with IFN (Dose Concentration 100.0 μM), the IFN induction entry is given as “+”.

Compound `CCCCc1nc2c(N)nc3cccnc3c2n1CCCCNC(=O)CSc1ccncc1` [Example 110, N^1-[4-(4-Amino-2-butyl-1H-imidazo[4,5-c][1,5]naphthyridin-1-yl)butyl]-2-(4-pyridylsulfanyl)acetamide] had a melting point of 127.5 to 129 °C. Further, in the data set on TNF (Dose Concentration 0.1 μM), the TNF induction entry is reported as “−”. Further, in the data set with TNF (Dose Concentration 1.0 μM), the TNF induction result is given as “+”. In addition, in the data set with TNF (Dose Concentration 10.0 μM), the TNF induction result was “+”. Moreover, the TNF induction result in the data set on TNF (Dose Concentration 100.0 μM) was “+”. Besides, the IFN induction entry with IFN (Dose Concentration 0.1 μM) was “+”. Also, in the data set on IFN (Dose Concentration 1.0 μM), the IFN induction result is “+”. Further, the IFN induction result in the data set on IFN (Dose Concentration 10.0 μM) is reported as “+”. Further, the IFN induction result with IFN (Dose Concentration 100.0 μM) is “+”.

`NCCCCn1cnc2c(N)nc3cccnc3c21` [Example 111, 4-(4-amino-1H-imidazo[4,5-c][1,5]naphthyridin-1-yl)butaneamine]: the melting point lay in the range of 161 to 163 °C. The TNF induction entry with TNF (Dose Concentration 0.1 μM) was “−”. Besides, in the data set on TNF (Dose Concentration 1.0 μM), the TNF induction result is on record as “−”. Further, the TNF induction result with TNF (Dose Concentration 10.0 μM) is on record as “+”. Also, the TNF induction result in the data set on TNF (Dose Concentration 100.0 μM) is “+”. For the same compound, in the data set with IFN (Dose Concentration 0.1 μM), the IFN induction entry was “−”. Further, the IFN induction entry with IFN (Dose Concentration 1.0 μM) was “−”. The IFN induction entry in the data set with IFN (Dose Concentration 10.0 μM) was “+”. Moreover, in the data set with IFN (Dose Concentration 100.0 μM), the IFN induction entry is given as “+”.

`CCCCc1nc2c(N)nc3cccnc3c2n1CCCCNC(=O)c1ccc(C(OCCN(C)C)c2ccccc2)cc1` (centres unmarked) [Example 112, N^1-[4-(4-Amino-2-butyl-1H-imidazo[4,5-c][1,5]naphthyridin-1-yl)butyl]-4-{[2-(dimethylamino)ethoxy](phenyl)methyl}benzamide] displayed a melting point of 105 to 108 °C. Further, the TNF induction result with TNF (Dose Concentration 0.1 μM) is listed as “+”. Moreover, the TNF induction entry in the data set with TNF (Dose Concentration 1.0 μM) was “+”. For the same compound, the TNF induction entry in the data set on TNF (Dose Concentration 10.0 μM) is on record as “−”. The TNF induction result in the data set with TNF (Dose Concentration 100.0 μM) was “−”. The IFN induction result with IFN (Dose Concentration 0.1 μM) is reported as “+”. Also, the IFN induction entry in the data set with IFN (Dose Concentration 1.0 μM) is “+”. The IFN induction entry in the data set with IFN (Dose Concentration 10.0 μM) was “+”. Further, the IFN induction result in the data set with IFN (Dose Concentration 100.0 μM) is “±”.

The compound `CCCCc1nc2c(N)nc3cccnc3c2n1CCNC(=O)Cn1cc(C)c(=O)[nH]c1=O` [Example 114, N^1-[4-(4-Amino-2-butyl-1H-imidazo[4,5-c][1,5]naphthyridin-1-yl)ethyl]-2-(5-methyl-2,4-dioxo-1,2,3,4-tetrahydro-1-pyrimidinyl)acetamide] yielded a melting point of 241 to 242 °C. Further, the TNF induction entry in the data set on TNF (Dose Concentration 0.1 μM) is reported as “−”. The TNF induction result in the data set on TNF (Dose Concentration 1.0 μM) is given as “−”. Besides, the TNF induction result with TNF (Dose Concentration 10.0 μM) is recorded as “+”. For the same compound, the TNF induction entry with TNF (Dose Concentration 100.0 μM) was “+”. Moreover, the IFN induction entry in the data set with IFN (Dose Concentration 0.1 μM) is reported as “−”. The IFN induction entry in the data set on IFN (Dose Concentration 1.0 μM) is listed as “−”. Besides, in the data set with IFN (Dose Concentration 10.0 μM), the IFN induction result is listed as “+”. Moreover, the IFN induction entry in the data set with IFN (Dose Concentration 100.0 μM) was “+”.

With `CCCCc1nc2c(N)nc3cccnc3c2n1CCNC(=O)CCCCCC1NC(=O)NC1C` (centres unmarked) [Example 115, N^1-[4-(4-Amino-2-butyl-1H-imidazo[4,5-c][1,5]naphthyridin-1-yl)ethyl]-6-(5-methyl-2-oxo-4-imidazolidinyl)hexamide], the melting point was in the range of 184 to 186 °C. Further, in the data set with TNF (Dose Concentration 0.1 μM), the TNF induction result is reported as “−”. In the data set on TNF (Dose Concentration 1.0 μM), the TNF induction entry is given as “−”. For the same compound, in the data set on TNF (Dose Concentration 10.0 μM), the TNF induction entry is “+”. Besides, the TNF induction result in the data set with TNF (Dose Concentration 100.0 μM) is “+”. In addition, the IFN induction entry with IFN (Dose Concentration 0.1 μM) is recorded as “−”. For the same compound, the IFN induction result in the data set with IFN (Dose Concentration 1.0 μM) is recorded as “−”. Also, the IFN induction result with IFN (Dose Concentration 10.0 μM) was “+”. For the same compound, the IFN induction entry with IFN (Dose Concentration 100.0 μM) was “+”.
